These results are taken from patent US20120289517A1, “SOLID PHARMACEUTICAL COMPOSITION FOR ORAL ADMINISTRATION” (Kowa Co., Ltd., priority 2009, published 2012).

Molecules are shown by their SMILES.

The nature of one series: Solubility in water. It counts as physicochemical.
Series [1] can be described thus: Dissolution test (paddle method, Japanese Pharmacopoeia). To be noted: summary of Test Example 1. It counts as physicochemical. The protocol:
Thus, the concentrations of the compound a after 5, 10, 15, 30, 45 and 60 minutes were measured. The sample solution collected at each time point was filtered through a membrane filter made of PTFE (DISMIC-25HP manufactured by Toyo Roshi Kaisha, Ltd.) having a pore size of 0.45 μm, and was analyzed by a high performance liquid chromatographic method using a reversed phase column (manufactured by Nomura Chemical Co., Ltd.; Develosil ODS-HG-5). Thus, the dissolution rates were calculated.

In the case of `CSc1cc(C)nc(SC)c1NC(=O)CN1CCN(CCSc2nc3ccccc3[nH]2)CC1` [compound a, 2-[4-[2-(Benzimidazol-2-ylthio)ethyl]piperazin-1-yl]-N-[2,4-bis(methylthio)-6-methyl-3-pyridyl]acetamide], the solubility in water in the series “Solubility in water” was 0.05 % (W/V). Further, the “dissolubility, result in words” value in series [1] is “hardly dissolved”.
